The results in this text go back to patent US20250082598A1, “Melafenoxate, 2-(1-adamantylamino)ethyl 2-(4-chlorophenoxy)acetate and derivatives thereof for treating circadian rhythm sleep disorders with neurodegenerative diseases such as Alzheimer's disease” (NLS Pharmaceutics AG, priority 2021, published 2025).

“Also recorded” adds a separate entry of the source.

One series deals with T1, NET (h) (Homo sapiens, UniProt P23975).
T1 construct: Eurofins
Nature of the series: Radioligand binding, NET (h). The conditions noted are these: 10^−5 M; antagonist radioligand. The method, then:
(§1) Melafenoxate was tested at 10^−5 M, calculated as a % inhibition of control specific binding of a radioactively labeled ligand specific for each target.
(§2) This binding profile panel was broadly defined with roughly an equal number of selective, central and peripheral therapeutically relevant targets, including native animal tissues, radioligands and specific enzymes involved in cell cycle regulation in accordance with Eurofins Standard Operating Procedure.
(§3) For radioligand binding experiments, the half maximal inhibitory concentration (IC50) and the half maximal effective concentration (EC50) values were determined (via computer software) by nonlinear regression analysis of the competition curves using Hill equation curve fitting. The inhibition constants (Ki) were calculated using the Cheng-Prusoff equation (Ki=IC50/(1+(L/KD)), where L is the concentration of radioligand in the assay, and KD is the affinity of the radioligand for the receptor.^49
(§4) The results are expressed as a % control specific binding ([measured specific binding/control specific binding]×100) and as a % inhibition of control specific binding (100−[(measured specific binding/control specific binding)×100]) obtained in the presence of the test compounds. […]

Another series addresses T2, 5-HT1A (h) (Homo sapiens, UniProt P08908).
T2 construct: CEREP (Eurofins, France)
T2 sequence (P08908 1-422): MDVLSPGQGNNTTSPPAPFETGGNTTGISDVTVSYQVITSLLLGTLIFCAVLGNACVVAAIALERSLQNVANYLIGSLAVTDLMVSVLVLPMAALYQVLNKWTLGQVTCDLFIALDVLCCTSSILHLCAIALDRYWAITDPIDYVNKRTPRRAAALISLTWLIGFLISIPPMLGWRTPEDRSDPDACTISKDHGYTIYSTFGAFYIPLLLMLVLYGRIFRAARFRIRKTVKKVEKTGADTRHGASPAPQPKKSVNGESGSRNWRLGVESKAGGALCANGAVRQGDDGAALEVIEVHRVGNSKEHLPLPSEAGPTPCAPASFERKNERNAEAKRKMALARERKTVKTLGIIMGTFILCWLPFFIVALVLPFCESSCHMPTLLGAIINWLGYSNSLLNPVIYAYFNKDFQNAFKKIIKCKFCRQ
Nature of the series: Radioligand binding, 5-HT1A (h). The conditions noted are these: 10^−5 M; agonist radioligand. The protocol: as §1, §2, §3, §4

For series [1], the system named is C57BL/6J mice. Nature of the series: Spontaneous locomotor activity in open-field. Format: in vivo. The conditions noted are these: 3.125, 6.25, 12.5, 25, 50 and 100 mg/kg. The protocol:
(§5) Experiments were carried out on C57BL/6J mice.
The effects of NLS-8 (6 doses) on spontaneous locomotor activity were examined. For this purpose, animals received an injection of NLS-8 (3.125, 6.25, 12.5, 25, 50 and 100 mg/kg) or its vehicle (Control group) (N=6/group) and were placed in an open-field for a 90-min session.
Locomotor activity (distance travelled in the open-field during the first, second and third 30-min period following treatment) was automatically recorded.
Data analysis: between group comparisons of all groups vs. the Control group: unpaired Student's t test.

Series [2] relates to C57BL/6J mice. Nature of the series: Scopolamine-induced amnesia in the novel object recognition (NOR) test. Format: in vivo. The method, then: The scopolamine-induced amnesia in the novel object recognition (NOR) test in mice is a recognized in vivo model of Alzheimer Disease (AD).
The aim of this study is to examine whether Melafenoxate (NLS-8) improves amnesia induced by scopolamine in the NOR test.
as §5
In a first step of the experiment, NLS-8 was tested at 25, 50 and 100 mg/kg.
Animals were divided into 6 groups (N=4-10/group).
At T=0 min, they received the following treatments by intraperitoneal (i.p.) route: • Control group: vehicle. • Scopolamine group: scopolamine (1.2 mg/kg). • NLS-8 25 group: NLS-8 (25 mg/kg)+scopolamine (1.2 mg/kg). • NLS-8 50 group: NLS-8 (50 mg/kg)+scopolamine (1.2 mg/kg). • NLS-8 100 group: NLS-8 (100 mg/kg)+scopolamine (1.2 mg/kg). • NLS-8 150 group: NLS-8 (150 mg/kg)+scopolamine (1.2 mg/kg).
At T=30 min following treatment, animals were subjected to a sample trial. They were placed for a 12-min session in a circular experimental box in which two identical objects were presented (50% of animals: two brown cylindrical vials; 50% of animals: two black rectangular columns). At t=120 min following treatments, mice were subjected to a choice trial. They were placed again for a 12-min session in the same experimental box in which two different objects (a vial and a column) were presented: one of the objects (termed as familiar object) presented in the sample trial and a novel object. Exploration of the objects was recorded by an experimenter blind to treatment and unaware of which object was the novel one and which object was the familiar one.
DI(discrimination index)=100 ×(exploration time of the novel object−exploration time of the familiar object)/(exploration time of the novel object+exploration time of the familiar object). • Index of exploration: N+F=exploration time of the novel object+exploration time of the familiar object.
• Within group comparisons: DI vs. 0 (paired Student's t test). • Between group comparisons vs. the Control group and vs. the Scopo group: unpaired Student's t test.

Where [3] appears, read: NLS-8 25-150 mg/kg + scopolamine 1.2 mg/kg i.p.

T1 sequence (P23975 whole entry): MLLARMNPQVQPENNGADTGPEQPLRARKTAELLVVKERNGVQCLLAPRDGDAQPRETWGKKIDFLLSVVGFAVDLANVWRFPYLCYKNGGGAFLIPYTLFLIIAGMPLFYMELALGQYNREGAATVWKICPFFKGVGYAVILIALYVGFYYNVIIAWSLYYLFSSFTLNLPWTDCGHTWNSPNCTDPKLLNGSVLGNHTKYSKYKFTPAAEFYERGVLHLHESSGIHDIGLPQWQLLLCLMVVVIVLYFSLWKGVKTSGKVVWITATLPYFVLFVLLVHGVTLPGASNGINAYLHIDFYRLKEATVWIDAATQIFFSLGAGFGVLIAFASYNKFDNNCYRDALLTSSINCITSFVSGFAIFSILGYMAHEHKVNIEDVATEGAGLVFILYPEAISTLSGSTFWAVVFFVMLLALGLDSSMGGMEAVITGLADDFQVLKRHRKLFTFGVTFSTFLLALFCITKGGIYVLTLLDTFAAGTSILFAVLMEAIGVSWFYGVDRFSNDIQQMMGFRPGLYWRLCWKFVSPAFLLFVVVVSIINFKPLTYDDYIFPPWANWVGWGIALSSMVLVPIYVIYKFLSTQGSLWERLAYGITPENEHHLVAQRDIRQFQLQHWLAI

Usually inhibition stands for how much of the control response was suppressed. High values mean strong suppression, low ones little suppression. For the molecule `O=C(COc1ccc(Cl)cc1)OCCNC12CC3CC(CC(C3)C1)C2` [Melafenoxate, 2-(1-adamantylamino)ethyl 2-(4-chlorophenoxy)acetate], the inhibition at 10 µM was 16.5% at NET (h) and 10.4% on 5-HT1A (h). In addition, the “distance travelled in the open-field (locomotor activity) vs. Control group” value in the series with C57BL/6J mice [1] (90-min session, C57BL/6J mice, listed as NLS-8) was “did not significantly modify; also recorded: no significant”. In addition, the visible side effect entry with C57BL/6J mice [1] (any dose tested) is “did not induce visible side effect”. In addition, the “discrimination index vs. 0 (within group)” value is listed as “Non-significantly higher than 0” in the series with C57BL/6J mice [2] (NLS-8 25 mg/kg + scopolamine 1.2 mg/kg i.p.), “Significantly higher than 0” in the series on C57BL/6J mice [2] (NLS-8 50 mg/kg + scopolamine 1.2 mg/kg i.p.), “Non-significantly higher than 0” with C57BL/6J mice [2] (NLS-8 100 mg/kg + scopolamine 1.2 mg/kg i.p.) and “Non-significantly higher than 0” in the series on C57BL/6J mice [2] (NLS-8 150 mg/kg + scopolamine 1.2 mg/kg i.p.). The “exploration time of objects (N+F) during the choice trial” value was “higher than that of Control and Scopo groups” with C57BL/6J mice [2] (NLS-8 50 mg/kg + scopolamine 1.2 mg/kg i.p., vs. Control and Scopo groups); “not significant” with C57BL/6J mice [2] (all other comparisons (other than NLS-8 50 group) vs. Control and vs. Scopo group). In the series with C57BL/6J mice [2] (NLS-8 25-150 mg/kg), the “effect on amnesia induced by scopolamine (conclusion)” value was “can improve amnesia induced by scopolamine”. Moreover, the “discrimination index, NLS-8 groups vs. Control group” value in the series with C57BL/6J mice [2] (setting [3]) is “Not significantly different”. Further, the “discrimination index, NLS-8 groups vs. Scopo group” value in the series with C57BL/6J mice [2] (setting [3]) is “Not significantly different; also recorded: not significant”.
